Experimental data reported in patent US12286401B2, “Small molecules that sensitize HIV-1 infected cells to antibody dependent cellular cytotoxicity” (THE TRUSTEES OF THE UNIVERSITY OF PENNSYLVANIA, priority 2018, dated 2025).

Tests used:
Solubility in PBS = assay type: physicochemical; conditions: Yes/NO
[1] = tested on: HIV-1JR-FL EnvΔCT expressed at the surface of HOS cells; assay: Cell-based ELISA (CBE), 17b readout; conditions: MCG analogs 50 μM; BNM-III-170 5 μM; 2G12 and DMSO normalized
In short: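 HOS cells transiently expressing cytoplasmic-tail-truncated HIV-1JR-FL Env were treated 30 min at room temperature with compounds (50 μM), sCD4 ([…]) or DMSO, then 1 h with 17b antibody. Bound 17b was detected by HRP-conjugated anti-Fc chemiluminescence; values are fold over BNM-III-170 (5 μM), normalized to 2G12 and DMSO.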

[2] = tested on: CH58TF infected primary CD4+ T-cells; assay: HIV+ patient sera/plasma recognition of CH58TF infected primary CD4+ T-cells (flow cytometry cell-surface staining); assay type: cell-based, HIV-1; conditions: Human immunodeficiency virus 1, T-cell, read-out: Fold Over DMSO (patient sera, n = 3)
In short: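 Primary CD4+ T cells from PBMC infected with HIV-1 CH58TF for 48 h, then surface-stained with 1:1000 HIV+ plasma or 5 μg/ml 17b plus 50 μM MCG analogs or DMSO; Alexa Fluor 647 anti-human IgG detection by flow cytometry, infected cells gated p24+. Values are fold change over DMSO.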

[3] = tested on: CH58TF infected primary CD4+ T-cells; assay: Recognition of HIV-1 infected cells by 17b (flow cytometry cell-surface staining); assay type: cell-based; conditions: Human immunodeficiency virus 1, T-cell, read-out: Fold Over DMSO (17b, n = 1)
Description: Cell-surface staining of primary CD4+ T cells from healthy HIV uninfected individuals or CEM-NKr cells is performed, as described in Prevost, “Influence of the Envelope gp120 Phe 43 Cavity on HIV-1 Sensitivity to Antibody-Dependent Cell-Mediated Cytotoxicity Responses,” 2017, J. Virol 91; Richard, “CD4 mimetics sensitize HIV-1-infected cells to ADCC,” 2015, Proc. Natl. Acad. Sci. USA, 112:E2687-2694; Richard, “Small CD4 Mimetics Prevent HIV-1 Uninfected Bystander CD4+ T Cell Killing Mediated by Antibody-dependent Cell-mediated Cytotoxicity,” 2016, EBioMedicine 3:122-134; Veillette, “The HIV-1 gp120 CD4-Bound Conformation Is Preferentially Targeted by Antibody-Dependent Cellular Cytotoxicity-Mediating Antibodies in Sera from HIV-1-Infected Individuals,” 2015, J. Virol., 89:545-551; Veillette, “Interaction with cellular CD4 exposes HIV-1 envelope epitopes targeted by antibody-dependent cell-mediated cytotoxicity,” 2014, J. Virol., 88:2633-2644; Richard, “Uninfected Bystander Cells Impact the Measurement of HIV-Specific Antibody-Dependent Cellular Cytotoxicity Responses,” 2018, MBio. 9(2): e00358-18; Richard, “BST-2 Expression Modulates Small CD4-Mimetic Sensitization of HIV-1-Infected Cells to Antibody-Dependent Cellular Cytotoxicity,” 2017, J. Virol. 91(11):e00219-17. Binding of HIV-1 infected cells by HIV+ sera (1:1000 dilution) or anti-Env Abs (such as 17b) is performed […] in vitro infection at 37° C. in presence of different concentrations of the MCG analogs or with equivalent volume of vehicle (DMSO). Cells infected with HIV-1 primary isolates are stained intracellularly for HIV-1 p24 using the Cytofix/Cytoperm Fixation/Permeabilization Kit (BD Biosciences, Mississauga, ON, Canada) and then fluorescent anti-p24 mAb (PE-anti-p24, clone KC57; Beckman Coulter/Immunotech, Hialeah, FL) (1:100 final concentration). The percentage of infected cells (p24^+ or GFP+ cells) is determined by gating the living cell population based on the viability dye staining. Samples are analyzed on an LSRII cytometer (BD Biosciences, Mississauga, ON, Canada) and data analysis is performed using FlowJo vX0.7 (Tree Star, Ashland, OR, USA).
(§1) Briefly, Primary CD4 T cells isolated from PBMC were infected with HIV-1CH58TF for 48 hours. For cell surface staining, 5 μg/ml 17b (FIG. 15A) or 1:1000 diluted HIV+ plasma (n=15) (FIG. 15B) were used in the presence of the different MCG analogs (50 μM), (+)-BNM-III-170 or with an equivalent volume of vehicle (DMSO). An Alexa Fluor 647-conjugated anti-human IgG secondary Ab was then used for fluorescent labeling. For ADCC (FIG. 15C), infected cells were used as target cells in a FACS-based ADCC assay that measures the killing of infected (p24+ cells). See, Madani, 2016, J. Virol., 90:5031-5046. The assay determines susceptibility to ADCC mediated by a 1/1,000 dilution of plasma from 15 HIV-1-infected individuals in the presence of the different MCG analogs (50 μM), (+)-BNM-III-170 (50 μM) or with an equivalent volume of vehicle (DMSO). Correlation between cell-surface staining with HIV+ plasma and ADCC was calculated using the Spearman rank correlation (FIG. 15D).

[4] = tested on: primary CD4+ T cells infected with CH58 TF; assay: FACS-based ADCC assay with patient sera/plasma; assay type: cell-based, HIV-1; conditions: Human immunodeficiency virus 1, CD4+ T, read-out: Fold over DMSO (% ADCC with ps, n = 3)
Description: Measurement of antibody or serum-mediated ADCC is performed with a FACS-based assay as described in Prevost, “Influence of the Envelope gp120 Phe 43 Cavity on HIV-1 Sensitivity to Antibody-Dependent Cell-Mediated Cytotoxicity Responses,” 2017, J. Virol 91; Richard, “CD4 mimetics sensitize HIV-1-infected cells to ADCC,” 2015, Proc. Natl. Acad. Sci. USA, 112:E2687-2694; Richard, “Small CD4 Mimetics Prevent HIV-1 Uninfected Bystander CD4+ T Cell Killing Mediated by Antibody-dependent Cell-mediated Cytotoxicity,” 2016, EBioMedicine 3:122-134; Veillette, “The HIV-1 gp120 CD4-Bound Conformation Is Preferentially Targeted by Antibody-Dependent Cellular Cytotoxicity-Mediating Antibodies in Sera from HIV-1-Infected Individuals,” 2015, J. Virol., 89:545-551; Veillette, “Interaction with cellular CD4 exposes HIV-1 envelope epitopes targeted by antibody-dependent cell-mediated cytotoxicity,” 2014, J. Virol., 88:2633-2644; Richard, “Uninfected Bystander Cells Impact the Measurement of HIV-Specific Antibody-Dependent Cellular Cytotoxicity Responses,” 2018, MBio. 9(2): e00358-18; Richard, “BST-2 Expression Modulates Small CD4-Mimetic Sensitization of HIV-1-Infected Cells to Antibody-Dependent Cellular Cytotoxicity,” 2017, J. Virol. 91(11):e00219-17. This assay specifically measures ADCC activity against productively infected cells and is not affected by the confounding effect of uninfected bystander cells. See, Richard, “Uninfected Bystander Cells Impact the Measurement of HIV-Specific Antibody-Dependent Cellular Cytotoxicity Responses,” 2018, MBio., 9(2): e00358-18.
Briefly, primary CD4+ T cells isolated from healthy HIV-1-negative individuals or CEM-NKr cells are infected with HIV viruses. Forty-eight hours post-infection, cells are incubated with autologous PBMC (effector:target cell ratio of 10:1) in the presence of 1:1000 HIV+ sera dilution or anti-Env Abs (5 μg/mL) alone or in combination with increasing concentration of MCG analogs. Infected cells are identified by intracellular staining for HIV-1 p24 or GFP expression (for GFP expressing infectious molecular clones) and the percentage of cytotoxicity is calculated the following formula as described.
For cells infected with HIV-1 primary isolates, infected cells are identified by intracellular staining for HIV-1 p24. In that context, the percentage of cytotoxicity is calculated with the following formula by gating infected lived target cells: […]
The ADCC susceptibility of primary CD4+ T cells infected with CH58 TF mediated by HIV+ plasma+/−MCG analogs also was evaluated using a FACS-based assay as previously reported. See, Ding, 2016, J Virol., 90:2127-2134; and Richard, 2018, MBio 9.
as §1

| SMILES | Solubility (in PBS) (Solubility in PBS) | Fold over BNM-III-170 - 17b binding (±0.05) [1] [fold] | fold induction at 50 µM [2] | fold induction at 50 µM [3] | fold induction at 50 µM [4] |
| --- | --- | --- | --- | --- | --- |
| CS(=O)(=O)N1CCC[C@H](C(=O)Nc2ccc(Br)c(Cl)c2)C1 [(S)-MCG-III-085-A06] | Yes | 0.14 | 1.61 | 3.3 | – |
| CS(=O)(=O)N1CCC[C@H](C(=O)Nc2ccc(Cl)c(Cl)c2)C1 [(S)-MCG-III-085-A03] | Yes | 0.19 | 1.46 | 3.34 | – |
| CC(C)(C)OC(=O)N1CCN(S(C)(=O)=O)CC1C(=O)Nc1ccc(Cl)c(F)c1 (centres unmarked) [MCG-III-212-A01] | Yes | 0.06 | 0.982 | 0.968 | – |
| CCS(=O)(=O)N1CCC[C@H](C(=O)Nc2ccc(Cl)c(Cl)c2)C1 [(S)-MCG-III-085-C03] | Yes | 0.25 | 1.65 | 3.83 | – |
| CCS(=O)(=O)N1CCC[C@H](C(=O)Oc2ccc(Cl)c(F)c2)C1 [(S)-MCG-III-213-A02] | Yes | 0.07 | 1.03 | 1.07 | – |
| CS(=O)(=O)N1CCC[C@H](C(=O)Nc2ccc(F)c(F)c2)C1 [(S)-MCG-III-085-A04] | Yes | 0.10 | 1.31 | 3 | – |
| CS(=O)(=O)N1CCOC(C(=O)Nc2ccc(Cl)c(F)c2)C1 (centres unmarked) [MCG-III-211-A01] | Yes | 0.28 | 1.47 | 2.63 | – |
| Cn1cnc(S(=O)(=O)N2CCOC(C(=O)Nc3ccc(Cl)c(F)c3)C2)c1 (centres unmarked) [MCG-III-211-A04] | Yes | 0.35 | 1.63 | 3.61 | – |
| CCS(=O)(=O)N1CCC[C@H](C(=O)Nc2ccc(Cl)c(Br)c2)C1 [(S)-MCG-III-085-C05] | Yes | 0.26 | 1.04 | 1.77 | – |
| Cn1cnc(S(=O)(=O)N2CCN(C(=O)OC(C)(C)C)C(C(=O)Nc3ccc(Cl)c(F)c3)C2)c1 (centres unmarked) [MCG-III-212-A04] | Yes | 0.06 | 0.924 | 1.04 | – |
| CS(=O)(=O)N1CC(C(=O)Nc2ccc(Cl)c(F)c2)Cc2ccccc21 (centres unmarked) [MCG-III-214-A01] | Yes | 0.24 | 1.29 | 1.39 | – |
| CS(=O)(=O)N1CCC[C@H](C(=O)Nc2ccc(Cl)c(Br)c2)C1 [(S)-MCG-III-085-A05] | Yes | 0.16 | 1.11 | 2.15 | – |
| Cn1cnc(S(=O)(=O)N2CCNC(C(=O)Nc3ccc(Cl)c(F)c3)C2)c1 (centres unmarked) [MCG-III-216-A04] | Yes | 0.10 | 0.845 | 1.24 | – |
| COc1ccccc1NC(=O)[C@H]1CCCN(S(C)(=O)=O)C1 [(S)-MCG-III-027-C05] | Yes | – | 1.76 | 1.5 | 0.46 |
| CS(=O)(=O)N1CCC[C@H](C(=O)Oc2ccc(Cl)c(F)c2)C1 [(S)-MCG-III-213-A01] | Yes | 0.07 | 1.08 | 1.08 | – |
| O=C(Nc1ccc(Cl)c(F)c1)C1CNCCN1 (centres unmarked) [MCG-III-216-A01] | Yes | 0.21 | 0.999 | 1.73 | – |
| O=C(Nc1ccc(Cl)c(F)c1)C1CN(S(=O)(=O)c2ccccc2)CCN1 (centres unmarked) [MCG-III-216-A03] | Yes | 0.11 | 1.05 | 1.47 | – |
